Tests used:
human sebocytes (SEB-1) = experiment: Cytotoxicity to human sebocytes (SEB-1), Cell Titer-Blue Cell Viability Assay; assay type: cell-based; conditions: in reference to cells incubated with media alone
[1] = system: normal human keratinocytes (NHEK); experiment: Cytotoxicity to normal human keratinocytes (NHEK), Cell Titer-Blue Cell Viability Assay; assay type: cell-based; conditions: in reference to cells incubated with media alone

N[C@@H](CCC(=O)N[C@@H](CSN=O)C(=O)NCC(=O)O)C(=O)O [GSNO, S-nitrogluthione]
% SEB-1 Killed (human sebocytes (SEB-1); 0.12 mg/ml, 24 hr): 6%
% SEB-1 Killed (human sebocytes (SEB-1); 0.12 mg/ml, 48 hr): 11%
% SEB-1 Killed (human sebocytes (SEB-1); 0.12 mg/ml, 72 hr): 19%
% SEB-1 Killed (human sebocytes (SEB-1); 0.6 mg/ml, 24 hr): 48%
% SEB-1 Killed (human sebocytes (SEB-1); 0.6 mg/ml, 48 hr): 68%
% SEB-1 Killed (human sebocytes (SEB-1); 0.6 mg/ml, 72 hr): 67%
% SEB-1 Killed (human sebocytes (SEB-1); 1.2 mg/ml, 24 hr): 85%
% SEB-1 Killed (human sebocytes (SEB-1); 1.2 mg/ml, 48 hr): 97%
% SEB-1 Killed (human sebocytes (SEB-1); 1.2 mg/ml, 72 hr): 98%
% NHEK Killed ([1]; 0.12 mg/ml, 24 hr): 4%
% NHEK Killed ([1]; 0.12 mg/ml, 48 hr): 5%
% NHEK Killed ([1]; 0.12 mg/ml, 72 hr): 15%
% NHEK Killed ([1]; 0.6 mg/ml, 24 hr): 8%
% NHEK Killed ([1]; 0.6 mg/ml, 48 hr): −11%
% NHEK Killed ([1]; 0.6 mg/ml, 72 hr): −3%
% NHEK Killed ([1]; 1.2 mg/ml, 24 hr): 34%
% NHEK Killed ([1]; 1.2 mg/ml, 48 hr): 53%
% NHEK Killed ([1]; 1.2 mg/ml, 72 hr): 44%

Source: patent US8591876B2, “Methods of decreasing sebum production in the skin” (priority 2010, dated 2013)
